Experimental findings from patent publication US11076595B2, “1-(n,n-disubstituted carbamoyl) 4-(substituted sulfonyl)triazolin-5-one derivative, 4-(n,n-disubstituted carbamoyl) 1-(substituted sulfonyl)triazolin-5-one derivative, and herbicide containing said derivative as active ingredient” (HOKKO CHEMICAL INDUSTRY CO., LTD., priority 2017, dated 2021) are described below.

Type in all cases: in vivo
Assay [1] relates to Echinochloa crus-galli. As to the kind of experiment: Test Example 11: herbicidal effect test by soil treatment in paddy field. The note with it: 120 g/10a active ingredient, 14 days after treatment. An outline of the steps:
(§1)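 Dry weight at day 14 relative to untreated controls gives the suppression rate; duplicate pots. Treatment: 120 g a.i./10 are into paddy water at sowing.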

The subject of assay [2] is Lindernia pyxidaria. The assay is described as above. The following applies: 120 g/10a active ingredient, 14 days after treatment. The method, boiled down:
as §1

In assay [3] the test system is Monochoria vaginalis. Described as above. The following applies: 120 g/10a active ingredient, 14 days after treatment. The method, boiled down:
as §1

For assay [4], the system named is Scirpus juncoides. The description is as above. The note with it: 120 g/10a active ingredient, 14 days after treatment. The method, boiled down: as §1
Assay [5] has as its system Echinochloa crus-galli. Kind of assay: Test Example 12: herbicidal effect test by treatment during growing period in paddy field. The note with it: 120 g/10a; treatment seven days after sowing in flooded paddy pot; assessed 14 days after treatment. An outline of the steps: (§2)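 Paddy soil + NPK 17:17:17, puddled; 30 seeds/species sown 0–1 cm; flooded ~3 cm, greenhouse. Day 7 post-sowing: EC diluted in water, applied dropwise into water, 120 g a.i./10 are. Day 14 post-treatment: dry weight vs untreated → % suppression; n=2.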

For assay [6], the system named is Lindernia pyxidaria. The description is as above. The following applies: 120 g/10a; treatment seven days after sowing in flooded paddy pot; assessed 14 days after treatment. The method, boiled down:
as §2

Assay [7] concerns Monochoria vaginalis. The description is as above. The note with it: 120 g/10a; treatment seven days after sowing in flooded paddy pot; assessed 14 days after treatment. An outline of the steps:
as §2

Assay [8] relates to Scirpus juncoides. The description is as above. The note with it: 120 g/10a; treatment seven days after sowing in flooded paddy pot; assessed 14 days after treatment. An outline of the steps: as §2
Assay [9] has as its system Chenopodium album. As to the kind of experiment: Test Example 14: herbicidal effect test by foliage treatment in upland field. The following applies: 7 days after sowing, 120 g/10a, 14 days after treatment. Here is the method: (§3) A pot having a size of 36 cm^2 was filled with field soil (alluvial soil) and after uniformly mixing the soil of the surface layer of 1 cm with 20 grains of each weed seed of crabgrass, Echinochloa crus-galli, Chenopodium album and Amaranthus viridis, the surface layer was pressed lightly. Seven Days after the sowing, an emulsifiable concentrate prepared according to Formulation Example 15 by using the compound shown in Table 12 below was diluted with water, and the water-diluted formulation was sprayed on the soil surface at a ratio of 100 liter per 10 are. The application rate of the active ingredient, by conversion, corresponded to 120 g per 10 are. Fourteen Days after the formulation treatment, the herbicidal effect was evaluated by the same criteria as in Test Example 11.

The subject of assay [10] is crabgrass. Described as above. The note with it: 7 days after sowing, 120 g/10a, 14 days after treatment. As to the method:
as §3

Assay [11] concerns Amaranthus viridis. Described as above. The note with it: 7 days after sowing, 120 g/10a, 14 days after treatment. Here is the method:
(§4) This test was performed with two replications per one formulation concentration plot, and 14 days after the formulation treatments, the weed suppression rate (%) was determined according to the following equation (Math. 2). Weed suppression rate (%)=(1−average dry weight (g) of plants in treated plots/average dry weight (g) of plants in untreated plots)×100 [Math. 2]
as §3

In assay [12] the test system is Echinochloa crus-galli. The assay is described as above. The following applies: 7 days after sowing, 120 g/10a, 14 days after treatment. As to the method: as §4, §3

Turning to `CC(C)N(C(=O)n1cnn(S(=O)(=O)C(C)C)c1=O)c1ccccc1F` [Compound 11-49], the “Weed suppression rate (%) Echinochloa crus-galli” value in assay [1] came out at 90%; in assay [5] it was 100%. For the same compound, the “Weed suppression rate (%) Lindemia pyxidaria” value in [2] is reported as 80%; in [6], 90%. The “Weed suppression rate (%) Monochoria vaginalis” value stood at 80% in assay [3] and 90% in assay [7]. The “Weed suppression rate (%) Scirpus juncoides” value in assay [4] and in assay [8] was 90% throughout. Further, the “herbicidal effect, Chenopodium album” value in [9] is listed as 80%. Moreover, in [10], the “herbicidal effect, Crabgrass” value worked out at 90%. The “herbicidal effect, Amaranthus viridis” value in assay [11] is on record as 90%. In addition, the “herbicidal effect, Echinochloa crus-galli” value in [12] is 80%.
In the case of `CC(C)N(Cc1ccc(F)cc1F)C(=O)n1cnn(S(=O)(=O)c2cccs2)c1=O` [Compound 11-1046], the “Weed suppression rate (%) Echinochloa crus-galli” value in [1] and in assay [5] was 100% each time. Further, the entries for the “Weed suppression rate (%) Lindemia pyxidaria” value in assay [2] and in [6] were 80% and 90%, respectively. The “Weed suppression rate (%) Monochoria vaginalis” value stood at 60% in [3] and 90% in [7]. For the same compound, the “Weed suppression rate (%) Scirpus juncoides” value is recorded as 80% in assay [4] and 90% in [8]. The “herbicidal effect, Chenopodium album” value in assay [9] came out at 40%. For the same compound, the “herbicidal effect, Crabgrass” value in assay [10] came to 100%. Besides, in assay [11], the “herbicidal effect, Amaranthus viridis” value came out at 60%. Also, the “herbicidal effect, Echinochloa crus-galli” value in [12] is reported as 0%.
Regarding `Cc1cc(Cl)ccc1N(C(=O)n1cnn(S(=O)(=O)C(C)C)c1=O)C(C)C` [Compound 11-74], the “Weed suppression rate (%) Echinochloa crus-galli” value in assay [1] and in assay [5] was 90% throughout. The “Weed suppression rate (%) Lindemia pyxidaria” value in assay [2] and in [6] was 80% each time. Also, the “Weed suppression rate (%) Monochoria vaginalis” value in [3] and in [7] was 80% in each case. The “Weed suppression rate (%) Scirpus juncoides” value in [4] and in [8] was 90% throughout. Moreover, the “herbicidal effect, Chenopodium album” value in [9] was found to be 80%. In addition, the “herbicidal effect, Crabgrass” value in [10] came out at 90%. In addition, the “herbicidal effect, Amaranthus viridis” value in assay [11] came out at 90%. For the same compound, in assay [12], the “herbicidal effect, Echinochloa crus-galli” value is reported as 80%.
Regarding `Cc1ccc(S(=O)(=O)n2ncn(C(=O)N(c3ccc(Cl)cn3)C(C)C)c2=O)cc1` [Compound 11-661], the “Weed suppression rate (%) Echinochloa crus-galli” value in assay [1] and in [5] was 100% each time. Moreover, the “Weed suppression rate (%) Lindemia pyxidaria” value in assay [2] and in [6] was 100% each time. Moreover, the “Weed suppression rate (%) Monochoria vaginalis” value in assay [3] amounted to 80%; in assay [7], 100%. The “Weed suppression rate (%) Scirpus juncoides” value in [4] and in [8] was 90% throughout. The “herbicidal effect, Chenopodium album” value in [9] is 0%. In addition, in assay [10], the “herbicidal effect, Crabgrass” value came out at 70%. Further, in assay [11], the “herbicidal effect, Amaranthus viridis” value is on record as 0%. The “herbicidal effect, Echinochloa crus-galli” value in assay [12] was 90%.
Take `CC(C)N(C(=O)n1cnn(S(=O)(=O)C2CCCCC2)c1=O)c1ccc(Cl)cc1Br` [Compound 11-306]: the “Weed suppression rate (%) Echinochloa crus-galli” value in assay [1] came to 100%; in assay [5] it was 90%. Moreover, the figures for the “Weed suppression rate (%) Lindemia pyxidaria” value in [2] and in assay [6] were 80% and 70%, respectively. Also, the “Weed suppression rate (%) Monochoria vaginalis” value in assay [3] worked out at 60%; in assay [7], 70%. In addition, the “Weed suppression rate (%) Scirpus juncoides” value in assay [4] and in assay [8] was 100% in each case. Also, in assay [9], the “herbicidal effect, Chenopodium album” value is recorded as 70%. Further, the “herbicidal effect, Crabgrass” value in [10] worked out at 100%. Moreover, the “herbicidal effect, Amaranthus viridis” value in [11] is given as 70%. Further, the “herbicidal effect, Echinochloa crus-galli” value in assay [12] worked out at 60%.
In the case of `O=C(N(CC(F)(F)F)c1ccc(F)cc1F)n1cnn(S(=O)(=O)C2CC2)c1=O` [Compound 11-144], the “Weed suppression rate (%) Echinochloa crus-galli” value in assay [1] and in assay [5] was 100% each time. Besides, the “Weed suppression rate (%) Lindemia pyxidaria” value in assay [2] was determined as 90%; in [6], 100%. Further, the “Weed suppression rate (%) Monochoria vaginalis” value is reported as 80% in [3] and 100% in assay [7]. Further, the “Weed suppression rate (%) Scirpus juncoides” value in assay [4] and in assay [8] was 100% in each case. Further, in [9], the “herbicidal effect, Chenopodium album” value worked out at 60%. The “herbicidal effect, Crabgrass” value in assay [10] was found to be 80%. In addition, the “herbicidal effect, Amaranthus viridis” value in assay [11] was found to be 80%. For the same compound, the “herbicidal effect, Echinochloa crus-galli” value in assay [12] turned out to be 80%.
Take `CCS(=O)(=O)n1ncn(C(=O)N(c2ccc(F)c(F)c2F)C(C)C)c1=O` [Compound 11-1152]: the “Weed suppression rate (%) Echinochloa crus-galli” value in [1] and in assay [5] was 100% throughout. Besides, the “Weed suppression rate (%) Lindemia pyxidaria” value in assay [2] and in assay [6] was 100% each time. In addition, the “Weed suppression rate (%) Monochoria vaginalis” value in assay [3] and in [7] was 100% in each case. Moreover, the “Weed suppression rate (%) Scirpus juncoides” value in assay [4] and in assay [8] was 100% throughout. In assay [9], the “herbicidal effect, Chenopodium album” value was 80%. Further, the “herbicidal effect, Crabgrass” value in assay [10] is reported as 100%. For the same compound, the “herbicidal effect, Amaranthus viridis” value in assay [11] was determined as 90%. In addition, in [12], the “herbicidal effect, Echinochloa crus-galli” value stood at 100%.
With `CC(C)N(C(=O)n1cnn(S(=O)(=O)C(C)C)c1=O)c1ccc(C(F)(F)F)cc1F` [Compound 11-76], the “Weed suppression rate (%) Echinochloa crus-galli” value in assay [1] and in assay [5] was 100% in each case. Also, the “Weed suppression rate (%) Lindemia pyxidaria” value in assay [2] is 80%; in assay [6], 60%. The results for the “Weed suppression rate (%) Monochoria vaginalis” value in assay [3] and in assay [7] were 100% and 80%, respectively. Further, the “Weed suppression rate (%) Scirpus juncoides” value in [4] and in assay [8] was 60% in each case. The “herbicidal effect, Chenopodium album” value in assay [9] amounted to 60%. Besides, in assay [10], the “herbicidal effect, Crabgrass” value turned out to be 100%. In assay [11], the “herbicidal effect, Amaranthus viridis” value came to 80%. Further, in [12], the “herbicidal effect, Echinochloa crus-galli” value amounted to 100%.
Turning to `CC(C)N(C(=O)n1cnn(S(=O)(=O)C2CCCCC2)c1=O)c1c(F)c(F)cc(F)c1F` [Compound 11-299], the “Weed suppression rate (%) Echinochloa crus-galli” value in assay [1] and in assay [5] was 100% each time. Also, the figures for the “Weed suppression rate (%) Lindemia pyxidaria” value in [2] and in assay [6] were 100% and 80%, respectively. In addition, the “Weed suppression rate (%) Monochoria vaginalis” value worked out at 70% in [3] and 100% in assay [7]. The “Weed suppression rate (%) Scirpus juncoides” value in assay [4] and in assay [8] was 100% throughout. Moreover, in [9], the “herbicidal effect, Chenopodium album” value was 60%. For the same compound, the “herbicidal effect, Crabgrass” value in assay [10] is 100%. The “herbicidal effect, Amaranthus viridis” value in assay [11] is 60%. Also, the “herbicidal effect, Echinochloa crus-galli” value in assay [12] is 100%.
For the compound `CC(C)N(C(=O)n1cnn(S(=O)(=O)c2cccs2)c1=O)c1c(F)cc(F)cc1F` [Compound 11-1026], the “Weed suppression rate (%) Echinochloa crus-galli” value in assay [1] and in assay [5] was 100% throughout. Also, the figures for the “Weed suppression rate (%) Lindemia pyxidaria” value in [2] and in [6] were 100% and 80%, respectively. The “Weed suppression rate (%) Monochoria vaginalis” value in [3] and in [7] was 100% in each case. Moreover, the “Weed suppression rate (%) Scirpus juncoides” value in assay [4] and in assay [8] was 100% throughout. Further, the “herbicidal effect, Chenopodium album” value in assay [9] is on record as 70%. The “herbicidal effect, Crabgrass” value in assay [10] worked out at 90%. In addition, in [11], the “herbicidal effect, Amaranthus viridis” value is on record as 30%. The “herbicidal effect, Echinochloa crus-galli” value in [12] was 90%.
